# Measurements reported in patent US6608082B1, “Treatment of erectile dysfunction using isoquinoline compound melanocortin receptor ligands” (Lion Bioscience AG, priority 1998, dated 2003).
# Where two headings read alike, the source gives them in different places.
# Tests used:
# [1] = target: T1, MCR-1 (Homo sapiens, UniProt Q01726); assay: Melanocortin receptor binding assay, competition with 125I-HP 467, HEK 293 cells expressing hMCR-1; conditions: for IC50: read-out: MC-1 IC50
# T1 construct: expressed in transfected cells; host or cells: HEK 293
# T1 sequence (Q01726 whole entry): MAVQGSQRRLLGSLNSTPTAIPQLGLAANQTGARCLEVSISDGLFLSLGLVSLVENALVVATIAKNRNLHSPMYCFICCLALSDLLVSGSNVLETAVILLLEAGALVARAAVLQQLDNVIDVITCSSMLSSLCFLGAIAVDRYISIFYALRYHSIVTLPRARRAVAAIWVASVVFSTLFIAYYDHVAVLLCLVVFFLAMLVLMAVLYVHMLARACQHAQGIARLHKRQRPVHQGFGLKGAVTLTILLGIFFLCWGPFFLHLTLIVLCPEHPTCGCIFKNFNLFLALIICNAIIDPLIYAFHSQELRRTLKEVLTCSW
# Outline: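 Test compounds compete on intact HEK 293 cells carrying hMCR-1 (2×10^4 per tube) or hMCR-4 (4×10^3 per tube), suspended in PBS, 10% calf serum, 1 mM CaCl2.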
# [2] = target: T2, MCR-4 (Homo sapiens, UniProt P32245); assay: Melanocortin receptor binding assay, competition with 125I-HP 467, HEK 293 cells expressing hMCR-4; conditions: for IC50: read-out: MC-4 IC50
# T2 construct: expressed in transfected cells; host or cells: HEK 293
# T2 sequence (P32245 whole entry): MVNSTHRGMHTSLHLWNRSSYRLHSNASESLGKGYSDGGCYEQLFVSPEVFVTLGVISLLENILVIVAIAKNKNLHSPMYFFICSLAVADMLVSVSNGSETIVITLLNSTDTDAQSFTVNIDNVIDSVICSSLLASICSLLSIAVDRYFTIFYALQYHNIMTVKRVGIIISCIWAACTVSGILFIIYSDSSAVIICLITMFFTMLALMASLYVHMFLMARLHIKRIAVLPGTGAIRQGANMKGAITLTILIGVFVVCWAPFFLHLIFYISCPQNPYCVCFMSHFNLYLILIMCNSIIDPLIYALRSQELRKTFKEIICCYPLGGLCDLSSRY
# Description: All cell culture media and reagents were obtained from GibcoBRL (Gaithersburg Md.), except for COSMIC CALF SERUM (HyClone; Logan Utah).
# Cells were suspended in PBS, 10% COSMIC CALF SERUM and 1 mM CaCl2. Cell suspensions were prepared at a density of 2×10^4 cells/ml for HEK 293 cells expressing hMCR-3, hMCR-4 or hMCR-5, and 1×10^5 cells/ml for HEK 293 cells expressing hMCR-1. Suspensions were placed in a water bath and allowed to warm to 37° C. for 1 hr.
# Binding assays were performed in a total volume of 250 μl for HEK 293 cells. […] To each tube was added 4×10^3 HEK 293 cells expressing hMCR-3, hMCR-4 or hMCR-5, or 2×10^4 cells expressing hMCR-1. Assays were incubated for 2.5 hr at 37° C.
# GF/B filter plates were prepared by soaking for at least one hour in 5 mg/ml BSA and 10 mM CaCl2. Assays were filtered using a Brandel 96-well cell harvester (Brandel Inc.; Gaithersburg, Md.). The filters were washed four times with cold 50 mM Tris, pH 7.4, the filter plates were dehydrated for 2 hr and 35 μl of MICROSCINT was added to each well. Filter plates were counted using a Packard Topcount (Packard Instrument Co.) and data analyzed using GraphPad PRISM v2.0 (GraphPad Software Inc.; San Diego Calif.) and Microsoft EXCEL v5.0a (Microsoft Corp.; Redmond Wash.).
# To assay isoquinoline compounds, binding assays were performed in duplicate in a 96 well format. […] A 0.2 ml aliquot of suspended cells was added to each well to give the cell numbers indicate above, and the cells were incubated at 37° C. for 2.5 hr. Cells were harvested on GF/B filter plates as described above and counted.
# [3] = TRG 2406 and TRG 2407 libraries, inhibition of binding of 125I-HP 467
# [4] = TRG 2408 and TRG 2409 libraries, inhibition of 125I-HP 467 binding
# [5] = competition with 125I-HP 467, HEK 293 cells expressing MCR-1
# [6] = competition with 125I-HP 467, HEK 293 cells expressing MCR-4
# [7] = inhibition of binding of 125I-HP 467, HEK 293 cells expressing MCR-1, TRG 2414 library
# [8] = inhibition of binding of 125I-HP 467, HEK 293 cells expressing MCR-4, TRG 2414 library
# [9] = inhibition of binding of 125I-HP 467, HEK 293 cells expressing MCR-1
# [10] = inhibition of binding of 125I-HP 467, HEK 293 cells expressing MCR-4
Compound,"IC50 [1, 7] [µM]","IC50 [2, 8] [µM]",other results
CCNc1ccc(C2C(CNc3cccc(O)c3)c3ccccc3CN2CCCCC(CN)NC)cc1 (mixture of isomers) [TRG 2407-47],,,"IC50 [1, 3]: 0.84 µM; MC-4 IC50 [2, 3]: no fit"
CCNc1ccc(C2C(CNC3CCCCC3)c3ccccc3CN2CCCCC(CN)NCCN)cc1 (mixture of isomers) [TRG 2408-7],,,"IC50 [1, 4]: 1.3 µM; IC50 [2, 4]: 44.5 µM"
CNCCNC(CN)CCCCN1Cc2ccccc2C(CNC2CCCCC2)C1c1ccc(-c2ccccc2)cc1 (mixture of isomers) [TRG 2408-24],,,"IC50 [1, 4]: 1.94 µM; IC50 [2, 4]: 17.1 µM"
CCNc1ccc(C2C(CNC3CCCCC3)c3ccccc3CN2CCCCC(N)CN)cc1 (mixture of isomers) [TRG 2408-31],,,"IC50 [1, 4]: 1.27 µM; IC50 [2, 4]: 46.5 µM"
NCC(CCN1Cc2ccccc2C(CNC2CCCCC2)C1c1ccc(Cl)cc1Cl)NCCc1ccccc1 (mixture of isomers) [TRG 2408-102],,,"IC50 [1, 4]: 7.05 µM; IC50 [2, 4]: 1.88 µM"
NCC(N)CCN1Cc2ccccc2C(CNC2CCCCC2)C1c1ccc(-c2ccccc2)cc1 (mixture of isomers) [TRG 2408-111],,,"IC50 [1, 4]: 7.52 µM; IC50 [2, 4]: 12 µM"
CNCCNC(CN)CCN1Cc2ccccc2C(CNC2CCCCC2)C1c1ccc(-c2ccccc2)cc1 (mixture of isomers) [TRG 2408-114],,,"IC50 [1, 4]: 3.24 µM; IC50 [2, 4]: 10.5 µM"
CNC(C)CNC(CN)CCCCN1Cc2ccccc2C(CN)C1c1ccc(-c2ccccc2)cc1 (mixture of isomers) [TRG 2411-28],,,"IC50 [1, 5]: 0.56 µM; IC50 [2, 6]: 1.23 µM"
CCNc1ccc(C2C(CNCCc3ccccc3)c3ccccc3CN2CCCCC(CN)NCCc2ccc(Br)cc2)cc1 (mixture of isomers) [TRG 2411-41],,,"IC50 [1, 5]: 0.49 µM; IC50 [2, 6]: 1.64 µM"
CCCCNc1ccc(C2C(CNC3CCCCC3)c3ccccc3CN2CCCCC(CN)NCC)cc1 (mixture of isomers) [TRG 2411-87],,,"IC50 [1, 5]: 0.23 µM; IC50 [2, 6]: 0.83 µM"
COc1ccccc1CCNCC1c2ccccc2CN(CCCCC(N)CN)C1c1ccc(Cl)cc1Cl (mixture of isomers) [TRG 2414-9],1.1,0.7,
COc1ccccc1CCNCC1c2ccccc2CN(CCCCC(CN)NCc2ccccc2)C1c1ccc(Cl)cc1Cl (mixture of isomers) [TRG 2414-11],1.8,3.48,
COc1ccc(CCNCC2c3ccccc3CN(CCCCC(CN)NCCc3ccccc3)C2c2ccc(Cl)cc2Cl)cc1 (mixture of isomers) [TRG 2414-26],3.95,2.52,
NCC(N)CCCCN1Cc2ccccc2C(CNC2CCCCCC2)C1c1ccc(Cl)cc1Cl (mixture of isomers) [TRG 2414-33],1.9,0.72,
NCC(N)CCCCN1Cc2ccccc2C(CNC2CCCCC2)C1c1ccc(Cl)cc1Cl (mixture of isomers) [TRG 2414-37],0.992,1.3,
NCC(CCCCN1Cc2ccccc2C(CNC2CCCCC2)C1c1ccc(Cl)cc1Cl)NCc1ccccc1 (mixture of isomers) [TRG 2414-39],2.12,4.37,
COc1ccccc1CCNCC1c2ccccc2CN(CCCCC(CN)NCC(C)c2ccc(CC(C)C)cc2)C1c1cc(C(F)(F)F)cc(C(F)(F)F)c1 (mixture of isomers) [TRG 2414-52],22.1,17.5,
NCC(N)CCCCN1Cc2ccccc2C(CNCc2ccccc2C(F)(F)F)C1c1cccc(Oc2ccccc2)c1 (mixture of isomers) [TRG 2414-81],10.8,9.87,
NCC(CCCCN1Cc2ccccc2C(CNCc2ccccc2C(F)(F)F)C1c1cccc(Oc2ccccc2)c1)NCCc1ccccc1 (mixture of isomers) [TRG 2414-82],,42.9,"MC-1 IC50 [1, 7]: no fit"

Compound,"IC50 [1, 7] [µM]","IC50 [2, 8] [µM]",other results
CCOc1ccccc1CNCC1c2ccccc2CN(CCCCC(N)CN)C1c1cccc(Oc2ccccc2)c1 (mixture of isomers) [TRG 2414-85],2.43,2.17,
COc1ccccc1CCNCC1c2ccccc2CN(CCCCC(CN)NCC(C)c2ccc(CC(C)C)cc2)C1c1cccc(Oc2ccccc2)c1 (mixture of isomers) [TRG 2414-92],42.6,,"MC-4 IC50 [2, 8]: no fit"
COc1cccc(CNCC2c3ccccc3CN(CCCCC(N)CN)C2c2cccc(Oc3ccccc3)c2)c1 (mixture of isomers) [TRG 2414-97],4.51,2.5,
COc1cccc(CNCC2c3ccccc3CN(CCCCC(CN)NCCc3ccccc3)C2c2cccc(Oc3ccccc3)c2)c1 (mixture of isomers) [TRG 2414-98],13.2,9.61,
COc1ccc(CNCC2c3ccccc3CN(CCCCC(CN)NCc3ccccc3)C2c2cccc(Oc3ccccc3)c2)cc1 (mixture of isomers) [TRG 2414-103],8.13,7.48,
NCC(CCCCN1Cc2ccccc2C(CNC2CCCCC2)C1c1cccc(Oc2ccccc2)c1)NCCc1ccccc1 (mixture of isomers) [TRG 2414-118],8.44,4.49,
CCOc1ccccc1CNCC1c2ccccc2CN(CCCCC(CN)NCC(C)c2ccc(CC(C)C)cc2)C1c1ccc(Oc2ccccc2)cc1 (mixture of isomers) [TRG 2414-128],25,,"MC-4 IC50 [2, 8]: no fit"
COc1ccccc1CCNCC1c2ccccc2CN(CCCCC(N)CN)C1c1ccc(Oc2ccccc2)cc1 (mixture of isomers) [TRG 2414-129],0.146,5.58,
COc1ccc(CCNCC2c3ccccc3CN(CCCCC(CN)NCCc3ccccc3)C2c2ccc(Oc3ccccc3)cc2)cc1 (mixture of isomers) [TRG 2414-146],8.21,16.8,
NCC(CCCCN1Cc2ccccc2C(CNC2CCCCC2)C1c1ccc(Oc2ccccc2)cc1)NCCc1ccccc1 (mixture of isomers) [TRG 2414-158],2.74,6.71,
CCCOc1ccc(C2C(CNCc3ccccc3C(F)(F)F)c3ccccc3CN2CCCCC(CN)NCCc2ccccc2)cc1 (mixture of isomers) [TRG 2414-162],19.1,18.4,
CCCOc1ccc(C2C(CNCc3ccccc3OCC)c3ccccc3CN2CCCCC(N)CN)cc1 (mixture of isomers) [TRG 2414-165],0.994,5.06,
CCCOc1ccc(C2C(CNCCc3cccc(Cl)c3)c3ccccc3CN2CCCCC(CN)NCCc2ccccc2)cc1 (mixture of isomers) [TRG 2414-174],4.3,5.42,
CCCOc1ccc(C2C(CNCc3cccc(OC)c3)c3ccccc3CN2CCCCC(N)CN)cc1 (mixture of isomers) [TRG 2414-177],0.739,5.07,
CCCOc1ccc(C2C(CNCc3cccc(OC)c3)c3ccccc3CN2CCCCC(CN)NCC(C)c2ccc(CC(C)C)cc2)cc1 (mixture of isomers) [TRG 2414-180],8.19,47.1,
CCCOc1ccc(C2C(CO)c3ccccc3CN2CCCC(CN)NCCC2CCCCC2)cc1 (mixture of isomers) [TRG 2415-4],,,"IC50 [1, 9]: 2.57 µM; IC50 [2, 10]: 2.55 µM"
CCCCOc1ccc(C2C(CN)c3ccccc3CN2CCCCC(CN)NCC)cc1 (mixture of isomers) [TRG 2415-18],,,"IC50 [1, 9]: 0.306 µM; IC50 [2, 10]: 7.95 µM"
Cc1ccc(CNC(CN)CCCCN2Cc3ccccc3C(CNCCc3ccccc3)C2c2cc(C(F)(F)F)cc(C(F)(F)F)c2)cc1 (mixture of isomers) [TRG 2421-2],,,"IC50 [1, 9]: 3.73 µM; IC50 [2, 10]: 3.03 µM"
